Where “and” joins values, the source holds several entries; their conditions need not be identical. Equal entries are not always repeated. Numbers after ± are expanded uncertainties.
Settings: 313.15 K; Liquid; Closed cell (Static) method

| vapor or sublimation pressure | SMILES |
| --- | --- |
| 24.4 ± 0.094 kPa and 24.38 ± 0.094 kPa | c1ccccc1 [benzene] |
| 37.11 ± 0.14 kPa and 37.13 ± 0.14 kPa | CC(C)OC(C)C [diisopropyl ether] |
| 13.9 ± 0.06 kPa and 13.89 ± 0.06 kPa | CC(C)O [propan-2-ol] |
